One may read the IC50 as the concentration that inhibits the measured activity by half. Higher therefore signals weaker potency in that assay. Usually melting point stands for the temperature of the solid-liquid transition.

SMILES strings stand for the structures.

Here are results for eight compounds from patent US7329660B2, “Phthalazine derivatives for treating inflammatory diseases” (Novartis AG, priority 1999, dated 2008).

Data set [1] addresses T1, Flt-1 VEGF-receptor tyrosine kinase (Homo sapiens, UniProt P17948).
T1 construct: 10 ng of the kinase domain of Flt-1
T1 sequence (P17948 827-1158 limits assumed): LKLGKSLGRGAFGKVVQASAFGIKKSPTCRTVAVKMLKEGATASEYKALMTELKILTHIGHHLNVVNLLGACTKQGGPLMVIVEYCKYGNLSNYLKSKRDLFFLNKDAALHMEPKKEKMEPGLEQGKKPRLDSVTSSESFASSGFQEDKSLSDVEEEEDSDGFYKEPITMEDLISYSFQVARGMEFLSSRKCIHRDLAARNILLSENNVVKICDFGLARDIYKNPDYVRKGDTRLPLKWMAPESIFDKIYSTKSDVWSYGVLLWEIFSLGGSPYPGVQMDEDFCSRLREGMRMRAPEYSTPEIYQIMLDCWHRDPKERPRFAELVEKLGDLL
Nature of the data set: Test for activity against Flt-1 VEGF-receptor tyrosine kinase. Format: biochemical. As for the experimental part:
Test for activity against VEGF-receptor tyrosine kinase: the test is conducted using Flt-1 VEGF-receptor tyrosine kinase. […] The reaction is then ended by the addition of 10 μl 0.25 M ethylenediaminetetraacetate (EDTA) pH 7. Using a multichannel dispenser (LAB SYSTEMS, USA), an aliquot of 20 μl is applied to a PVDF (=polyvinyl difluoride) Immobilon P membrane (Millipore, USA), which is incorporated into a Millipore microtitre filter manifold, and connected to a vacuum. Following complete elimination of the liquid, the membrane is washed 4 times successively in a bath containing 0.5% phosphoric acid (H3PO4), incubated for 10 minutes each time while shaking, then mounted in a Hewlett Packard TopCount Manifold and the radioactivity measured after the addition of 10 μl Microscint® (β-scintillation counter liquid; Packard USA).
The test is conducted using Flt-1 VEGF-receptor tyrosine kinase, as described hereinabove.

The next data set concerns male Wistar rats. Nature of the data set: Rat adjuvant arthritis model, therapeutic dosing. The class given is in vivo. The note with it: for % inhibition of swelling: day 15 to day 22, swelling of the tarsal joints.
Excerpt: The well-known rat adjuvant arthritis model (Pearson, Proc. Soc. Exp. Biol. 91, 95-101 (1956)) is used to test the anti-arthritic activity of compounds of the formula I, or salts thereof. Adjuvant Arthritis can be treated uwing two different dosing schedules: either (i) starting time of immunisation with adjuvant (prophylactic dosing); or from day 15 when the arthritic response is already established (therapeutic dosing). Preferably a therapeutic dosing schedule is used. For comparison, e.g. SDZ115-155 (=DUP697) is administered in a separate group.
(§1) In detail, male Wistar rats (5 animals per group, weighing epproximately 200 g, supplied by Iffa Credo, France) are injected i.d. (intra-dermally) at the base of the tail with 0.1 ml of mineral oil containing 0.6 mg of lyophilised heat-killed Mycobacterium tuberculosis. The rats are treated with the test compound (3, 10 or 30 mg/kg p.o. once per day), or vehicle (water) from day 15 to day 22 (therapeutic dosing schedule). At the end of the experiment, the swelling of the tarsal joints is measured by means of a mico-calliper. Percentage inhibition of paw swelling is calculated by reference to vehicle treated arthritic animals (0% inhibition) and vehicle treated normal animals (100% inhibition).
The rat adjuvant arthritis model is used to test the anti-arthritic activity of the compound of Example 1 of WO 98/35958, 1-(4-chloroanilino)-4-(4-pyridylmethyl)phthalazine dihydrochloride. The therapeutic dosing schedule with start of treatment at day 15 after induction of arthritis is used.
as §1, with “Method: Male Wistar” for “In detail, male Wistar”, “(5 rats” for “(5 animals”, “group, weight about” for “group, weighing epproximately”, “200 g;” for “200 g, supplied by”, “of lyophilized” for “of lyophilised”, “p.o. s.i.d. (=once a” for “p.o. once per”

The subject of the next data set is male Sprague Dawley rats. Nature of the data set: Rat inflammatory hyperalgesia model (Randall-Selitto paw pressure test). The class given is in vivo. The note with it: 30 mg/kg p.o., 1 and 2 hours after dosing. As to the method:
In this model, the hyperalgesia caused by an intra-planar yeast injection is measured by applying increased pressure to the foot until the animal vocalizes or withdraws its foot from the applied pressure pad. The model is sensitive to COX inhibitors, and diclofenac at 3 mg/kg is used as a positive control.
Method: The baseline pressure required to induce vocalization or withdrawal of the paw of male Sprague Dawley rats (weighing approximately 180 g, supplied by Iffa Credo, France) is measured (2 hours before treatment), followed by an intra-planar injection of 100 μl of a 20% yeast suspension in water in the hind paw. […]
In this model, the hyperalgesia caused by an intra-planar yeast injection is measured by applying increased pressure to the foot until the animal vocalizes or withdraws its foot from the applied pressure pad. […]
Method: The baseline pressure required to induce vocalization or withdrawal of the paw of male Sprague Dawley rats (5 rats per group; weight approximately 180 g, Iffa Credo, France) is measured (2 hours before treatment), followed by an intra-planar injection of 100 μl of a 20% yeast suspension in water in the hind paw. […] Pressure is measured with the standard apparatus from Ugo Basile, Italy, for the paw pressure test (Randall-Selitto).

`Cc1cccc(Nc2nnc(/C=C/c3cccnc3)c3ccccc23)c1` [1 (E isomer)] displayed an IC50 in data set [1] of 0.715 µM.
As to `Cc1cccc(Nc2nnc(/C=C\c3cccnc3)c3ccccc23)c1` [1 (Z isomer)], the IC50 in data set [1] stood at 4.9 µM.
Turning to `Cl.Cl.Clc1ccc(Nc2nnc(Cc3ccncc3)c3ccccc23)cc1` [1-(4-chloroanilino)-4-(4-pyridylmethyl)phthalazine dihydrochloride], the “% inhibition of swelling” value with male Wistar rats (3 mg/kg p.o. once a day) is 0.8 ± 4.0%; in the data set with male Wistar rats (10 mg/kg p.o. once a day), 12.4 ± 5.0%; with male Wistar rats (30 mg/kg p.o. once a day), 37.0 ± 2.3%. Besides, in the data set on male Wistar rats (3, 10 or 30 mg/kg p.o., dosing for 7 days from day 15), the “inhibition of paw swelling (in words)” value is listed as “dose-related inhibition of paw swelling”. Besides, the “overall discomfort experienced by rats while being held for oral dosing” value in the data set on male Wistar rats (observation in the adjuvant arthritis model) is on record as “reduce the overall discomfort”. Also, in the data set on male Sprague Dawley rats, the “inhibition of paw hyperalgesia (in words)” value was “inhibits paw hyperalgesia”.
For the compound `CS(=O)(=O)c1ccc(-c2cc(Br)sc2-c2ccc(F)cc2)cc1` [115–155, reference compound], in the data set with male Wistar rats (3 mg/kg p.o. once a day), the “% inhibition of swelling” value is recorded as 53.8 ± 2.7%.
On to `Cc1cccc(Nc2nnc(CCc3cccnc3)c3ccccc23)c1` [Example 2], for which the melting point stood at 136 °C. In addition, inhibition in data set [1] was half-maximal at 0.317 µM (IC50).
Consider `FC(F)(F)c1cc(Nc2nnc(CCCc3cccnc3)c3ccccc23)ccc1Cl` [Example 8, 1-(4-Chloro-3-trifluoromethylanilino)-4-[3-(pyridin-3-yl)propyl]phthalazine], for which the melting point is 165 to 166 °C.
Turning to `Cc1cc(Nc2nnc(Cc3ccncc3)c3ccccc23)nc(C)n1` [Example 15, 1-[(2,6-Dimethyl-pyrimidin-4-yl)-amino]4-(4-pyridyl-methyl)-phthalazine], the melting point fell in the range of 232 to 233 °C.
Still for that read-out and setting: next, `Cc1cc(Cc2nnc(Nc3cc(Br)cc(C(F)(F)F)c3)c3ccccc23)ccn1` [Example 23, 1-(3-Bromo-5-trifluoromethyl-anilino)-4-(2-methylpyridin-4-yl-methyl)-phthalazine]: 184 to 185 °C.
